# Active and inactive are the calls of the source. The rule behind the calls is not given here.
# Key:
# [1] = biological target: T1, Phospholipid hydroperoxide glutathione peroxidase GPX4 (Homo sapiens) (UniProt P36969); test: Induction of GPX4 degradation in human HT-1080 cells at 10 uM incubated for 24 hrs relative to control; format: cell-based
# T1 sequence (whole entry): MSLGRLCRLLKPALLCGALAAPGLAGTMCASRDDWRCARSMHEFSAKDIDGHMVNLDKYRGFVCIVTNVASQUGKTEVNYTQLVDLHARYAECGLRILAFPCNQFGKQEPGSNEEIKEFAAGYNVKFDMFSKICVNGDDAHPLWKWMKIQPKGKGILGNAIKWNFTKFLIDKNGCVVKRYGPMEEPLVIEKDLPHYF
# [2] = biological target: T1, Phospholipid hydroperoxide glutathione peroxidase GPX4 (Homo sapiens); test: Induction of GPX4 degradation in human HT-1080 cells at 0.1 uM incubated for 6 hrs relative to control; format: cell-based
# [3] = biological target: T1, Phospholipid hydroperoxide glutathione peroxidase GPX4 (Homo sapiens); test: Induction of GPX4 degradation in human HT-1080 cells at 10 nM incubated for 24 hrs relative to control; format: cell-based
# [4] = Antiproliferative activity against human HEK293T cells incubated for 24 hrs; format: toxicity, cell-based, HEK-293T
# HT-1080 [5] = test: Antiproliferative activity against human HT-1080 cells incubated for 24 hrs; format: functional, cell-based; conditions: HT-1080, 24 h
# [6] = biological target: T1, Phospholipid hydroperoxide glutathione peroxidase GPX4 (Homo sapiens); test: Induction of GPX4 degradation in human HT-1080 cells at 10 uM incubated for 24 hrs by Western blotting analysis; format: cell-based
# [7] = biological target: T2, Phospholipid hydroperoxide glutathione peroxidase GPX4 (Homo sapiens, UniProt P36969); test: (§1) Induction of GPX4 degradation in human HT-1080 cells incubated for 6 hrs by Western blotting analysis; format: cell-based
# T2 sequence (P36969 whole entry): T1 sequence (whole entry)
# [8] = biological target: T1, Phospholipid hydroperoxide glutathione peroxidase GPX4 (Homo sapiens); test: as §1; format: cell-based; conditions: dose 0.0001-0.1 µM
# HT-1080 [9] = test: Potency index, ratio of (4-(bis(4-chlorophenyl)methyl)piperazin-1-yl)(5-methyl-4-nitroisoxazol-3-yl)methanone IC50 to test compound IC50 for antiproliferative activity against human HT-1080 cells; format: functional
# [10] = biological target: T1, Phospholipid hydroperoxide glutathione peroxidase GPX4 (Homo sapiens); test: Induction of GPX4 degradation in human HT-1080 cells at 0.0001 to 0.1 uM incubated for 24 hrs by Western blotting analysis; format: cell-based; conditions: dose 0.0001-0.1 µM
# HT-1080 [11] = test: Antiproliferative activity against human HT-1080 cells at 1 uM incubated for 24 hrs in presence of liproxstatin-1; format: functional, cell-based
# [12] = biological target: T2, Phospholipid hydroperoxide glutathione peroxidase GPX4; test: Induction of GPX4 degradation in human NCI-H1650 cells incubated for 24 hrs; format: cell-based
# [13] = biological target: T1, Phospholipid hydroperoxide glutathione peroxidase GPX4 (Homo sapiens); test: Induction of GPX4 degradation in human HT-1080 cells at 0.1 uM pretreated for 2 hrs followed by PYR41 addition and measured after 6 hrs; format: cell-based; conditions: time 8.0 hrs
# [14] = biological target: T1, Phospholipid hydroperoxide glutathione peroxidase GPX4 (Homo sapiens); test: Induction of GPX4 degradation in human HT-1080 cells at 0.0001 to 0.1 uM incubated for 1 hr by Western blotting analysis; format: cell-based; conditions: dose 0.0001-0.1 µM
# [15] = biological target: T1, Phospholipid hydroperoxide glutathione peroxidase GPX4 (Homo sapiens); test: Induction of GPX4 degradation in human HT-1080 cells in presence of lenalidomide; format: cell-based
# [16] = biological target: T2, Phospholipid hydroperoxide glutathione peroxidase GPX4; test: Induction of GPX4 degradation in gefitinib resistant human NCI-H1650 cells incubated for 24 hrs; format: cell-based
# [17] = biological target: T1, Phospholipid hydroperoxide glutathione peroxidase GPX4 (Homo sapiens); test: Induction of GPX4 degradation in human HT-1080 cells at 0.1 uM pretreated for 2 hrs followed by MG132 and measured after 6 hrs; format: cell-based; conditions: time 8.0 hrs
# HT-1080 [18] = test: Potency index, ratio of methyl (1S,3R)-1-(4-acetylphenyl)-2-(2-chloroacetyl)-2,3,4,9-tetrahydro-1H-pyrido[3,4-b]indole-3-carboxylate IC50 to test compound IC50 for antiproliferative activity against human HT-1080 cells; format: functional
# [19] = biological target: T1, Phospholipid hydroperoxide glutathione peroxidase GPX4 (Homo sapiens); test: Induction of GPX4 degradation in human HT-1080 cells in presence of RSL3; format: cell-based
# [20] = biological target: T1, Phospholipid hydroperoxide glutathione peroxidase GPX4 (Homo sapiens); test: Induction of GPX4 degradation in human HT-1080 cells at 0.1 to 1 uM incubated for 24 hrs; format: cell-based; conditions: dose 0.1-1 µM
# HT-1080 [21] = test: Antiproliferative activity against human HT-1080 cells at 10 uM; format: functional, cell-based
smiles,measurement,setting,value
COC(=O)[C@H]1Cc2c([nH]c3ccccc23)[C@H](c2ccc(C(=O)NCc3cn(CCOCCOCCOCCOCCNc4cccc5c4CN(C4CCC(=O)NC4=O)C5=O)nn3)cc2)N1C(=O)CCl (stereo partly specified),Activity,[1],inactive
COC(=O)[C@H]1Cc2c([nH]c3ccccc23)[C@H](c2ccc(C(=O)NCc3cn(CCOCCOCCNc4cccc5c4CN(C4CCC(=O)NC4=O)C5=O)nn3)cc2)N1C(=O)CCl (stereo partly specified),Activity,[1],inactive
COC(=O)[C@H]1Cc2c([nH]c3ccccc23)[C@H](c2ccc(C(=O)N3CCN(CCCCCCCCCCCCNc4cccc5c4C(=O)N(C4CCC(=O)NC4=O)C5=O)CC3)cc2)N1C(=O)CCl (stereo partly specified),Activity,[2],56%
COC(=O)[C@H]1Cc2c([nH]c3ccccc23)[C@H](c2ccc(C(=O)N3CCN(CCCCCCCCCCCCNc4cccc5c4CN(C4CCC(=O)NC4=O)C5=O)CC3)cc2)N1C(=O)CCl (stereo partly specified),Activity,[2],68%
COC(=O)[C@H]1Cc2c([nH]c3ccccc23)[C@H](c2ccc(C(=O)N3CCN(CCCCCCCCCCCCCNc4cccc5c4C(=O)N(C4CCC(=O)NC4=O)C5=O)CC3)cc2)N1C(=O)CCl (stereo partly specified),Activity,[2],67%
COC(=O)[C@H]1Cc2c([nH]c3ccccc23)[C@H](c2ccc(C(=O)N3CCC(CN4CCN(CCCCCNc5cccc6c5C(=O)N(C5CCC(=O)NC5=O)C6=O)CC4)CC3)cc2)N1C(=O)CCl (stereo partly specified),Activity,[3],5%
COC(=O)[C@H]1Cc2c([nH]c3ccccc23)[C@H](c2ccc(C(=O)N3CCN(CCCCCCCCCCCCCCNc4cccc5c4C(=O)N(C4CCC(=O)NC4=O)C5=O)CC3)cc2)N1C(=O)CCl (stereo partly specified),Activity,[2],44%
COC(=O)[C@H]1Cc2c([nH]c3ccccc23)[C@H](c2ccc(C(=O)N3CCN(CCCCCCCCCNc4cccc5c4CN(C4CCC(=O)NC4=O)C5=O)CC3)cc2)N1C(=O)CCl (stereo partly specified),Activity,[2],48%
COC(=O)[C@H]1Cc2c([nH]c3ccccc23)[C@H](c2ccc(C(=O)NCc3cn(CCOCCOCCOCCOCCNc4cccc5c4C(=O)N(C4CCC(=O)NC4=O)C5=O)nn3)cc2)N1C(=O)CCl (stereo partly specified),Activity,[1],35%
COC(=O)[C@H]1Cc2c([nH]c3ccccc23)[C@H](c2ccc(C(=O)NCc3cn(CCOCCOCCOCCOCCN[C@H](C(=O)N4C[C@H](O)C[C@H]4C(=O)N[C@@H](C)c4ccc(-c5scnc5C)cc4)C(C)(C)C)nn3)cc2)N1C(=O)CCl,Activity,[1],12%
COC(=O)[C@H]1Cc2c([nH]c3ccccc23)[C@H](c2ccc(C(=O)NCc3cn(CCOCCOCCOCCOCCOCCNc4cccc5c4C(=O)N(C4CCC(=O)NC4=O)C5=O)nn3)cc2)N1C(=O)CCl (stereo partly specified),Activity,[1],15%
COC(=O)[C@H]1Cc2c([nH]c3ccccc23)[C@H](c2ccc(C(=O)N3CCC(N4CCN(CCCCCCCCCNc5cccc6c5CN(C5CCC(=O)NC5=O)C6=O)CC4)CC3)cc2)N1C(=O)CCl (stereo partly specified),Activity,[3],15%
Cc1onc(C(=O)N2CCN(C(c3ccc(Cl)cc3)c3ccc(Cl)cc3)CC2)c1[N+](=O)[O-],IC50 at 24 h,[4],430 nM
same,IC50,HT-1080 [5],410 nM
COC(=O)[C@H]1Cc2c([nH]c3ccccc23)[C@H](c2ccc(C(=O)N3CCN(CCCCCCCNc4cccc5c4CN(C4CCC(=O)NC4=O)C5=O)CC3)cc2)N1C(=O)CCl (stereo partly specified),Activity,[2],10%
CCC(=O)N1[C@@H](c2ccc(C(=O)N3CCN(CCCCCCCCCCCCCNc4cccc5c4CN(C4CCC(=O)NC4=O)C5=O)CC3)cc2)c2[nH]c3ccccc3c2C[C@@H]1C(=O)OC (stereo partly specified),Activity,[6],inactive
COC(=O)[C@H]1Cc2c([nH]c3ccccc23)[C@H](c2ccc(C(=O)N3CCN(CCCCCCCCCCCNc4cccc5c4CN(C4CCC(=O)NC4=O)C5=O)CC3)cc2)N1C(=O)CCl (stereo partly specified),Activity,[2],64%
COC(=O)[C@H]1Cc2c([nH]c3ccccc23)[C@H](c2ccc(C(=O)N3CCN(CCCCCCCCCCCCCCNc4cccc5c4CN(C4CCC(=O)NC4=O)C5=O)CC3)cc2)N1C(=O)CCl (stereo partly specified),Activity,[2],58%
COC(=O)c1ccc([C@@H]2N[C@@H](C(=O)OC)Cc3c2[nH]c2ccccc32)cc1,Activity,[6],inactive
COC(=O)[C@H]1Cc2c([nH]c3ccccc23)[C@H](c2ccc(C(=O)N3CCC(CN4CCN(CCCNc5cccc6c5C(=O)N(C5CCC(=O)NC5=O)C6=O)CC4)CC3)cc2)N1C(=O)CCl (stereo partly specified),Activity,[3],3%
COC(=O)[C@H]1Cc2c([nH]c3ccccc23)[C@H](c2ccc(C(=O)NCc3cn(CCOCCOCCOCCOCCOCCNc4cccc5c4CN(C4CCC(=O)NC4=O)C5=O)nn3)cc2)N1C(=O)CCl (stereo partly specified),Activity,[1],inactive
COC(=O)[C@H]1Cc2c([nH]c3ccccc23)[C@H](c2ccc(C(=O)NCc3cn(CCOCCOCCNc4cccc5c4C(=O)N(C4CCC(=O)NC4=O)C5=O)nn3)cc2)N1C(=O)CCl (stereo partly specified),Activity,[1],32%
CCC(=O)N1[C@@H](c2ccc(C(=O)OC)cc2)c2[nH]c3ccccc3c2C[C@@H]1C(=O)OC,Activity,[6],inactive
COC(=O)[C@H]1Cc2c([nH]c3ccccc23)[C@H](c2ccc(C(=O)N3CCN(CCCCCCCCCCCCCNc4cccc5c4CN(C4CCC(=O)NC4=O)C5=O)CC3)cc2)N1C(=O)CCl (stereo partly specified),IC50 at 24 h,[4],205 nM
same,DC50,[7],37.4 nM
same,Activity,[8],Dose-Dependent Effect
same,Ratio IC50,HT-1080 [9],6
same,Activity,[10],Active
same,Activity,[3],57%
same,Activity,HT-1080 [11],inactive
same,DC50,[12],17.9 nM
same,Activity,[13],inactive
same,Activity,[14],Active
same,Activity,[15],Active
same,DC50,[16],22.9 nM
same,Activity,[17],inactive
same,Ratio IC50,HT-1080 [18],2
same,Activity,[19],Active
same,Activity,[2],69%
same,IC50,HT-1080 [5],68 nM
COC(=O)[C@H]1Cc2c([nH]c3ccccc23)[C@H](c2ccc(C(=O)NCc3cn(CCOCCOCCOCCN[C@H](C(=O)N4C[C@H](O)C[C@H]4C(=O)N[C@@H](C)c4ccc(-c5scnc5C)cc4)C(C)(C)C)nn3)cc2)N1C(=O)CCl,Activity,[1],50%
same,Activity,[20],inactive
same,Activity,HT-1080 [21],Active
COC(=O)[C@H]1Cc2c([nH]c3ccccc23)[C@H](c2ccc(C(=O)NCc3cn(CCOCCOCCOCCNc4cccc5c4C(=O)N(C4CCC(=O)NC4=O)C5=O)nn3)cc2)N1C(=O)CCl (stereo partly specified),Activity,[1],22%
CCCC(=O)N1[C@@H](c2ccc(C(=O)OC)cc2)c2[nH]c3ccccc3c2C[C@@H]1C(=O)OC,Activity,[6],inactive
COC(=O)[C@H]1Cc2c([nH]c3ccccc23)[C@H](c2ccc(C(=O)NCc3cn(CCOCCOCCOCCNc4cccc5c4CN(C4CCC(=O)NC4=O)C5=O)nn3)cc2)N1C(=O)CCl (stereo partly specified),Activity,[1],inactive
COC(=O)[C@H]1Cc2c([nH]c3ccccc23)[C@H](c2ccc(C(=O)N3CCC(CN4CCN(CCCCCCCCNc5cccc6c5C(=O)N(C5CCC(=O)NC5=O)C6=O)CC4)CC3)cc2)N1C(=O)CCl (stereo partly specified),Activity,[3],34%
COC(=O)[C@H]1Cc2c([nH]c3ccccc23)[C@H](c2ccc(C(=O)NCc3cn(CCOCCOCCOCCOCCOCCN[C@H](C(=O)N4C[C@H](O)C[C@H]4C(=O)N[C@@H](C)c4ccc(-c5scnc5C)cc4)C(C)(C)C)nn3)cc2)N1C(=O)CCl,Activity,[1],11%
COC(=O)[C@H]1Cc2c([nH]c3ccccc23)[C@H](c2ccc(C(=O)NCc3cn(CCOCCOCCN[C@H](C(=O)N4C[C@H](O)C[C@H]4C(=O)N[C@@H](C)c4ccc(-c5scnc5C)cc4)C(C)(C)C)nn3)cc2)N1C(=O)CCl,Activity,[1],49%
CCCCCC(=O)N1[C@@H](c2ccc(C(=O)OC)cc2)c2[nH]c3ccccc3c2C[C@@H]1C(=O)OC,Activity,[6],inactive
COC(=O)[C@H]1Cc2c([nH]c3ccccc23)[C@H](c2ccc(C(=O)N3CCN(CCCCCCCCCCCNc4cccc5c4C(=O)N(C4CCC(=O)NC4=O)C5=O)CC3)cc2)N1C(=O)CCl (stereo partly specified),Activity,[2],46%
